The subject of assay [1] is neuronal heteromeric receptors. The assay is described as follows: Activation of neuronal heteromeric nAChR (panel). To be noted: all heteromeric subtypes tested. The format is cell-based, human. The source says: Concatamers were used in order to obtain heteromeric receptors with known subunit composition. The β2-6-α4 concatamer was co-expressed with monomeric α4, β2, or α5 to obtain receptors with the composition α4(3)β2(2), α4(2)β2(3), or α4(2)β2(2)α5, respectively. A concatamer of five linked subunits was used to obtain the β3α4 β2α6β2 receptors. The α3β4 receptors were formed from the co-expression of α3 and β4 subunit monomers at equal ratios. Note that the data were initially measured relative to internal ACh control responses for each oocyte (Methods). Responses were subsequently adjusted for the relative values of the ACh controls and the ACh maximum responses for each of the various subtypes, determined in previous experiments. […]
(§1) Solutions were applied from 96-well plates via disposable tips. […] The responses were calculated as both peak current amplitudes and net charge, as previously described. Data were collected at 50 Hz, filtered at 20 Hz for α7 receptors or filtered at 5 Hz for heteromeric nAChR, and analyzed by Clampfit (Molecular Devices, San Jose, CA, USA) and Excel (Microsoft, Redmond, WA, USA). Data were expressed as means ± SEM from at least four oocytes for each experiment and plotted with Kaleidagraph 4.5.2 (Abelbeck Software, Reading, PA, USA). Multi-cell averages were calculated for comparisons of complex responses. […]

For assay [2], the target named is T1, α4(2)β2(2)β2L15’M receptors (Homo sapiens, UniProt P17787+P43681, L280M).
T1 construct: expressed in transfected cells; host or cells: Xenopus laevis oocytes (injected RNA)
T1 sequence (P17787 26-502, stated change not applied): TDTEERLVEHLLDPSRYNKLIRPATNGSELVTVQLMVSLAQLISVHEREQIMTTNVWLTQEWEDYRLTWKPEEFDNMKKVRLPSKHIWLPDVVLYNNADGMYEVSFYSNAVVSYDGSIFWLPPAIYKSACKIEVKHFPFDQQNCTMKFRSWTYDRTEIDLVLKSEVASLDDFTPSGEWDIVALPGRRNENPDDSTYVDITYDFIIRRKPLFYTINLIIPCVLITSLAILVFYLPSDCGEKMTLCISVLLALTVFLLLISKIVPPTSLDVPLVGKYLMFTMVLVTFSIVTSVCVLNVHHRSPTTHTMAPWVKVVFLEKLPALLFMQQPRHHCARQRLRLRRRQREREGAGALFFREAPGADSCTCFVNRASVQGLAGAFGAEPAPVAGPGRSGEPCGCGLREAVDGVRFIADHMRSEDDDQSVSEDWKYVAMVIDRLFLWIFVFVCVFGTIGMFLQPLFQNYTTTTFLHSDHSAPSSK
T1 sequence (P43681 27-627): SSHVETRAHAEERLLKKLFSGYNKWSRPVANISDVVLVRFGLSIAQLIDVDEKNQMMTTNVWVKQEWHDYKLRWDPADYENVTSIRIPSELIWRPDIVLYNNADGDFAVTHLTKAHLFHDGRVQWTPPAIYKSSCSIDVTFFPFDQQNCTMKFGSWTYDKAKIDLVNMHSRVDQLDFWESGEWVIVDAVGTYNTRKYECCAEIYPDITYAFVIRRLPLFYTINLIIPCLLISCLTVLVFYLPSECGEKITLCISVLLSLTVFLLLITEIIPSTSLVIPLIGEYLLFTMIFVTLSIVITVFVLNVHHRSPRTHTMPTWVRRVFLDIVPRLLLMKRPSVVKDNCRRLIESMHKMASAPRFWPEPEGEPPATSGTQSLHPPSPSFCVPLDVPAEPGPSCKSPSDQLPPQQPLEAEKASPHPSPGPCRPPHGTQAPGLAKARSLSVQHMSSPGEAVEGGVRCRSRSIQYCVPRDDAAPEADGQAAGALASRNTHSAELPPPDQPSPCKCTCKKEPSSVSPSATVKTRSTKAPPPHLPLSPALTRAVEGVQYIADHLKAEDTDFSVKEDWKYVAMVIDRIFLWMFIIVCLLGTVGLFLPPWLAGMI
T1 sequence (P17787 26-502 L280M): as the sequence (P17787 26-502, stated change not applied) above, with L255M counted along it
The assay is described as follows: Silent agonism of the TQS-sensitive α4β2L15’M mutant receptor. The format is cell-based. The method, then:
We conducted a screen of the other sulfonium compounds on the α4β2L15’M receptors and identified at least two compounds that gave potentiated responses above our limit of detection indicated by the dotted line in Figure 8B.
Figure 8 Silent agonism of an α4β2 mutant receptor that is sensitive to the α7 PAM TQS. (A) The averaged raw data of responses of eight oocytes expressing the β2-6-α4 concatamer and the β2L15’M mutant to 100 µM of the sulfonium agonist S1, applied alone or co-applied with 30 µM racemic TQS. […] (B) Evaluation of the effects of the sulfonium compounds, applied alone at 100 µM or co-applied with 30 µM TQS to α4(2)β2(2)β2L15’M receptors. […]
as §1

Another assay deals with T2, α4(2)β2(3) (Homo sapiens, UniProt P17787+P43681).
T2 construct: expressed in transfected cells; host or cells: Xenopus laevis oocytes (injected RNA)
T2 sequence (P17787 26-502): as the sequence (P17787 26-502, stated change not applied) above
T2 sequence (P43681 29-627 limits assumed): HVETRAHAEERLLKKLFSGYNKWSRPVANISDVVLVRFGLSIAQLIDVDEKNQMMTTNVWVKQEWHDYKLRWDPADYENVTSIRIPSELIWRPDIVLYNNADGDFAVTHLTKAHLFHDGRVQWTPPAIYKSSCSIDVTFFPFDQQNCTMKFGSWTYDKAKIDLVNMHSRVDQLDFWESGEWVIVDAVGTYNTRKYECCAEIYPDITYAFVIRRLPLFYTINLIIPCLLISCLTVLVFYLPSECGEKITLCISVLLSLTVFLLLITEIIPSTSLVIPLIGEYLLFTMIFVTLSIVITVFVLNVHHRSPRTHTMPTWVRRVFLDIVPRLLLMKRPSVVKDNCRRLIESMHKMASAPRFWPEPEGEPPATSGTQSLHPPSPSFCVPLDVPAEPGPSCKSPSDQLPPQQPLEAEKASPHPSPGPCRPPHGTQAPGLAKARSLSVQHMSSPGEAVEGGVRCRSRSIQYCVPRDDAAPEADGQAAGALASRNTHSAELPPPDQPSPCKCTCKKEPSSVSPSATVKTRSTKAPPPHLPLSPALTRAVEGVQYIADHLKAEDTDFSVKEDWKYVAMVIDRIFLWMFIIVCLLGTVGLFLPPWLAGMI
T2 sequence (P17787 26-502): as the sequence (P17787 26-502, stated change not applied) above
The assay is described as follows: Activation of heteromeric nAChR by S1: α4(2)β2(3). The format is cell-based. The source says:
Concatamers were used in order to obtain heteromeric receptors with known subunit composition. The β2-6-α4 concatamer was co-expressed with monomeric α4, β2, or α5 to obtain receptors with the composition α4(3)β2(2), α4(2)β2(3), or α4(2)β2(2)α5, respectively. A concatamer of five linked subunits was used to obtain the β3α4 β2α6β2 receptors. The α3β4 receptors were formed from the co-expression of α3 and β4 subunit monomers at equal ratios. Note that the data were initially measured relative to internal ACh control responses for each oocyte (Methods). Responses were subsequently adjusted for the relative values of the ACh controls and the ACh maximum responses for each of the various subtypes, determined in previous experiments.
Figure 6 Activation of heteromeric neuronal nAChR by S1. […] Data are the average peak currents (n = 6–8 oocytes ± SEM), measured relative to initial ACh control responses for each oocyte (concentrations listed in Methods). Responses were subsequently adjusted for the relative values of the ACh controls and the ACh maximum responses for each of the various subtypes, determined in previous experiments. […]
Solutions were applied from 96-well plates via disposable tips. […] The responses were calculated as both peak current amplitudes and net charge, as previously described. […] Multi-cell averages were calculated for comparisons of complex responses. […]

The test system of assay [3] is α4β2 subtypes formed with concatamers. The assay is described as follows: Inhibition of ACh control peak-current responses of α4-containing nAChR formed with concatamers. To be noted: 100 µM compound, Figure 7B. The format is cell-based, human. The procedure: Although none of the other sulfonium compounds activated neuronal heteromeric receptors, several of them produced inhibition of ACh-evoked responses. Shown in Figure 7A are concentration-response studies for the compounds that were active antagonists of α3β4 nAChR (Table 3). Some compounds were also tested as antagonists of α4β2 subtypes formed with concatamers (Figure 7B).
Figure 7 Inhibition of heteromeric nAChR by sulfonium compounds. (A) Inhibition of α3β4 100 µM ACh-evoked peak currents by the co-application of the sulfonium compounds. Data are the averaged of six to eight oocytes (±SEM). […]
Solutions were applied from 96-well plates via disposable tips. […] The responses were calculated as both peak current amplitudes and net charge, as previously described. Data were collected at 50 Hz, filtered at 20 Hz for α7 receptors or filtered at 5 Hz for heteromeric nAChR, and analyzed by Clampfit (Molecular Devices, San Jose, CA, USA) and Excel (Microsoft, Redmond, WA, USA). Data were expressed as means ± SEM from at least four oocytes for each experiment and plotted with Kaleidagraph 4.5.2 (Abelbeck Software, Reading, PA, USA). Multi-cell averages were calculated for comparisons of complex responses. Averages of the normalized data were calculated for each of the 10,322 points in each of the 206.44 s traces (acquired at 50 Hz), as well as the standard errors for those averages.

For `C[S+](C)C.[I-]` [Compound S1, trimethylsulfonium iodide], the “activation of neuronal heteromeric receptors” value in assay [1] is given as “activates all the neuronal heteromeric receptors tested”. Besides, in assay [2] (100 µM applied alone), the “activation of α4β2L15’M mutant receptors” value is given as “activated the α4β2L15’M mutant receptors”. Moreover, the “response on co-application with TQS” value in assay [2] (100 µM compound with 30 µM TQS, limit of detection 20 nA) is listed as “potentiated by TQS”. The “IMax (S1 Activation)” value on α4(2)β2(3) (peak currents relative to ACh maximum) was 0.89 ± 0.44. Also, at α4(2)β2(3) (peak currents, unit inferred), the EC50 (usually the concentration giving half of the maximal effect) amounted to 1.06 ± 1.24 mM.

Consider `C[S+](C)c1cc([N+](=O)[O-])ccc1O.[Br-]` [Compound S10, (2-hydroxy-5-nitrophenyl)dimethylsulfonium bromide], for which the relative antagonist activity result in assay [3] is given as “least”.

The values above are taken from paper PMC8464850, “Sulfonium Ligands of the α7 nAChR” (Molecules, 2021).
